Earlier results, collected in patent publication US20080063781A1, “Globin Digest Containing, Yeast-Fermented Beverages” (Suntory Limited, priority 2004, published 2008).

Test system: serum triglyceride levels
Details: reported in JP 9-255698 A

Row | Substance | suppressive activity against the elevation of serum triglyceride levels
1 | Val-Val-Tyr-Pro (VVYP; printed: Val-Val-Tyr-Pro) | strong suppressive activity against the elevation of serum triglyceride levels
2 | Val-Thr-Leu [VTL] | strong suppressive activity against the elevation of serum triglyceride levels
